Read-outs that look alike come from different tables or passages of the source.
How the values were obtained:
[1] = system: SVR (a transformed endothelial cell line); experiment: SVR cellular proliferation assay; assay type: cell-based; conditions: Mus musculus, SVR cells; for inhibition at 10 µg/mL: 10 μg/mL; for inhibition at 15 µg/mL: 15 μg/mL
Method: The SVR (a transformed endothelial cell line) proliferation assay can be used as a direct measure of antiangiogenic and antitumor activity. This assay serves as a high throughput screen that compares the effects of a compound on proliferation of SVR cells versus an immortalized endothelial cell line, MS1. […] SVR cells were plated in 24-well dishes. The next day, the medium was replaced with fresh medium containing the inhibitors or vehicle controls. Cells were incubated at 37° C. for 72 h (Arbiser, J. L., et al. 1999 J. Am. Acad. Dermatol. 40, 925-929; LaMontagne, K. R., et al. 2000 Am. J. Pathol. 157, 1937-1945), and cell number was determined in triplicate using a Coulter Counter (Hialeah, Fla.). Immortalized and K-Ras transformed rat epithelial cells (RIEpZip and […]) and fibroblasts (NIH3T3 pZip and NIH3T3 pZipK-Ras12V) were maintained at 37° C., 10% CO2, in Dulbecco's modified Eagle's medium supplemented with 5% fetal calf serum (RIE) or 10% calf serum (NIH3T3) (Oldham, S. M., et al. 1996 Proc. Natl. Acad. Sci. U.S.A. 93, 6924-6928; Pruitt, K., et al. 2000 J. Biol. Chem. 275, 40916-40924). Cells were plated at 10^5/well in six-well plates.

cytotoxicity assay (MTT) [2] = assay type: cell-based; conditions: for EC50 at 3 days: African green monkey; for EC50 at 4 days: human
Method: (§1) The cytotoxicity of the honokiol and analogues thereof were assessed in human PBM, CEM and Vero cells (Table 4). Compounds can be evaluated for their potential toxic effects on uninfected human PBM cells, in CEM (T-lymphoblastoid cell line obtained from American Type Culture Collection, Rockville, Md.) and Vero (African green monkey kidney) cells. PBM cells can be obtained from whole blood of healthy seronegative donors (HIV-1) by single-step Ficoll-Hypaque discontinous gradient centrifugation. […] All of the cells can be plated in 96-well cell culture plates containing ten-fold serial dilutions of the test drug. […] At the end of incubation, MTT tetrazolium dye solution (Cell titer 96®, Promega, Madison, Wis.) can be added to each well and incubated overnight. The reaction can be stopped with stop solubilization solution (Promega, Madison, Wis.). […] The plates can be read at a wavelength of 570 nm using an ELISA plate reader (Bio-tek instruments, Inc., Winooski, Vt., Model #EL 312e). The 50% inhibition concentration (IC50) can be determined from the concentration-response curve using the median effect method.

cytotoxicity assay (MTT) [3] = assay type: cell-based, human; conditions: human
Method: as §1

HIV-1 = experiment: HIV assay in PBM cells (RT activity); assay type: cell-based; conditions: Human immunodeficiency virus 1, PBMC, HIV-1 in human PBM cells; for EC50: read-out: Activity anti-VIH-1 on PBM cells EC50; for EC90: read-out: Activity anti-VIH-1 on PBM cells EC90
Method: The antiviral activity of the synthesized compounds and honokiol were evaluated against HIV-1 in human peripheral blood mononuclear (PBM) cells (Table 4).
Human peripheral blood mononuclear (PBM) cells (which can be obtained from Atlanta Red Cross) can be isolated by Ficoll-Hypaque discontinuous gradient centrifugation from healthy seronegative donors. Cells can be stimulated with phytohemagglutinin A (Difco, Sparks, Md.) for 2-3 days prior to use. HIV-1, such as HIV-1LAI can be obtained from the Centers for Disease Control and Prevention (Atlanta, Ga.), and can be used as the standard reference virus for the antiviral assays. The molecular infectious clones HIV-1xxBru and HIV-1M184Vpin can be obtained from Dr. John Mellors (University of Pittsburgh). Infections can be done in bulk for one hour, either with 100 TCID50/1×10^7 cells for a flask (T25) assay or with 200 TCID50/6×10^5 cells/well for a 24 well plate assay. Cells can be added to a plate or flask containing a ten-fold serial dilution of the test compound. Assay medium can be RPMI-1640 supplemented with heat inactivated 16% fetal bovine serum, 1.6 mM L-glutamine, 80 IU/ml penicillin, 80 μg/ml streptomycin, 0.0008% DEAE-Dextran, 0.045% sodium bicarbonate, and 26 IU/ml recombinant interleukin-2 (Chiron Corp, Emeryville, Calif.). AZT can be used as a positive control for the assay. Untreated and uninfected PBM cells can be grown in parallel at equivalent cell concentrations as controls. The cell cultures can be maintained in a humidified 5% CO2-air at 37° C. for 5 days and supernatants can be collected for reverse transcriptase (RT) activity.
Supernatants can be centrifuged at 12,000 rpm for 2 hours to pellet the virus. The pellet can be solubilized with vortexing in 100 μl virus solubilization buffer (VSB) containing 0.5% Triton X-100, 0.8 M NaCl, 0.5 mM phenylmethylsulfonyl fluoride, 20% glycerol, and 0.05 M Tris, pH 7.8. Ten μL of each sample can be added to 75 μL RT reaction mixture (0.06 M Tris, pH 7.8, 0.012 M MgCl2, 0.006 M dithiothreitol, 0.006 mg/ml poly (rA)n, oligo (dT)12-18, 96 μg/ml dATP, and 1 μM of 0.08 mCi/ml ^3H-thymidine triphosphate (Moravek Biochemicals, Brea, Calif.) and can be incubated at 37° C. for 2 hours. The reaction can be stopped by the addition of 100 μL 10% trichloroacetic acid containing 0.05% sodium pyrophosphate. The acid insoluble product can be harvested onto filter paper using a Packard Harvester (Meriden, Conn.), and the RT activity can be read on a Packard Direct Beta Counter (Meriden, Conn.). The RT results can be expressed in counts per minute (CPM) per milliliter. The antiviral 50% effective concentration (EC50) and 90% effective concentration (EC90) can be determined from the concentration-response curve using the median effect method (Belen'kii, S. M.; Schinazi, R. S. Multiple drug effect analysis with confidence interval. Antiviral. Res. 1994, 25, 1-11).

[4] = Vero kidney cells, Vero cells, read-out: Cytotoxicity (EC50-μM) in: VERO
[5] = CEM T-lymphoblastoid cells, CEM cells, read-out: Cytotoxicity (EC50-μM) in: CEM
[6] = uninfected PBM cells, read-out: Cytotoxicity (EC50-μM) in: PBM
[7] = Vero cells, read-out: Cytotoxicity (EC50-μM) in: VERO
[8] = CEM cells, read-out: Cytotoxicity (EC50-μM) in: CEM

C=CCOc1ccc(/C=C/C(=O)CC(=O)/C=C/c2ccc(O)c(OC)c2)cc1OC
inhibition at 10 µg/mL [1]: 75.2% | inhibition at 15 µg/mL [1]: 78.8%

C=CCc1ccc2c(c1)-c1cc(CC=C)ccc1OC(C)(C)O2 [drawing 54]
inhibition at 10 µg/mL [1]: 61.9% | inhibition at 15 µg/mL [1]: 59.7%

O=C(CCc1ccccc1)Oc1cc(OC(=O)CCc2ccccc2)cc(OC(=O)CCc2ccccc2)c1
inhibition at 10 µg/mL [1]: 5% | inhibition at 15 µg/mL [1]: 25%

C=CCc1ccc(O)c(CC=C)c1O
inhibition at 10 µg/mL [1]: 37.2% | inhibition at 15 µg/mL [1]: 36%

C=CCc1cccc(-c2cccc(CC=C)c2O)c1O [drawing 46]
EC50 at 3 days (cytotoxicity assay (MTT) [2]; [4]): > 100 µM | EC50 at 4 days (cytotoxicity assay (MTT) [2]; [5]): > 100 µM | EC50 at 5 days (cytotoxicity assay (MTT) [3]; [6]): > 100 µM | EC50 (HIV-1): 34.8 µM | EC90 (HIV-1): 63 µM

C=CCc1ccc(O)c(-c2cc(CC=C)ccc2O)c1
EC50 at 3 days (cytotoxicity assay (MTT) [2]; [7]): 79.9 µM | EC50 at 4 days (cytotoxicity assay (MTT) [2]; [8]): 99.6 µM | EC50 at 5 days (cytotoxicity assay (MTT) [3]; [6]): 38.6 µM | EC50 (HIV-1): 69.3 µM | EC90 (HIV-1): > 100 µM

C=CCc1ccc(OS(=O)(=O)c2ccccc2)c(-c2ccc(OS(=O)(=O)c3ccccc3)c(CC=C)c2)c1
inhibition at 10 µg/mL [1]: 35.3% | inhibition at 15 µg/mL [1]: 37.9%

CCCc1ccc(O)c(-c2ccc(O)c(CCC)c2)c1 [drawing 49]
inhibition at 10 µg/mL [1]: 79.2% | inhibition at 15 µg/mL [1]: 89.6%

C=CCc1cc(C(C)(C)c2ccc(O)c(CC=C)c2)ccc1O
inhibition at 10 µg/mL [1]: 32.9% | inhibition at 15 µg/mL [1]: 57.1%

C=CCOc1cc2c(cc1OCC=C)C1c3ccc(OCC=C)c(OCC=C)c3OCC1(O)C2 (stereo not drawn)
inhibition at 10 µg/mL [1]: 13.8% | inhibition at 15 µg/mL [1]: 41.8%

C=CCc1cccc(-c2cccc(CC=C)c2O)c1O [drawing 50]
inhibition at 10 µg/mL [1]: 40.8% | inhibition at 15 µg/mL [1]: 57.2%

C=CCc1cc(-c2ccc(O)c(CC=C)c2)ccc1O [drawing 47]
EC50 at 3 days (cytotoxicity assay (MTT) [2]; [7]): 33.2 µM | EC50 at 4 days (cytotoxicity assay (MTT) [2]; [8]): 23 µM | EC50 at 5 days (cytotoxicity assay (MTT) [3]; [6]): > 100 µM | EC50 (HIV-1): 19.4 µM | EC90 (HIV-1): 66.4 µM

CCCc1ccc(O)c(-c2ccc(O)c(CCC)c2)c1 [drawing 44]
EC50 at 3 days (cytotoxicity assay (MTT) [2]; [4]): 19.8 µM | EC50 at 4 days (cytotoxicity assay (MTT) [2]; [5]): 10.4 µM | EC50 at 5 days (cytotoxicity assay (MTT) [3]; [6]): 45.9 µM | EC50 (HIV-1): 16.9 µM | EC90 (HIV-1): 69.4 µM

C=CCc1cc2c3ccccc3n(CC=C)c2cc1O
inhibition at 10 µg/mL [1]: 68.9% | inhibition at 15 µg/mL [1]: 76.1%

C=CCOc1ccc(/C=C/C(=O)CC(=O)/C=C/c2ccc(OCC=C)c(OC)c2)cc1OC
inhibition at 10 µg/mL [1]: 70% | inhibition at 15 µg/mL [1]: 67.9%

C=CCc1cccc(-c2ccccc2O)c1O
inhibition at 10 µg/mL [1]: 47.1% | inhibition at 15 µg/mL [1]: 59.3%

C=CCc1cc(-c2ncc(O)cn2)ccc1O
inhibition at 10 µg/mL [1]: 4.4% | inhibition at 15 µg/mL [1]: 10%

C=CCc1c(O)ccc2c3ccccc3n(CC=C)c12
inhibition at 10 µg/mL [1]: 69.7% | inhibition at 15 µg/mL [1]: 78.7%

C=CCc1cc(-c2cccc(CC=C)c2O)ccc1O
inhibition at 10 µg/mL [1]: 74.2% | inhibition at 15 µg/mL [1]: 81.6%

C=CCc1ccc(O)c(-c2ccc(O)c(CC=C)c2)c1 [drawing 48]
inhibition at 10 µg/mL [1]: 59.9% | inhibition at 15 µg/mL [1]: 85%

C=CCc1ccc(O)c(-c2ccc(O)c(CC=C)c2)c1 [drawing 43]
EC50 at 3 days (cytotoxicity assay (MTT) [2]): 22.5 µM | EC50 at 4 days (cytotoxicity assay (MTT) [2]): 10.9 µM | EC50 at 5 days (cytotoxicity assay (MTT) [3]): 16.1 µM | EC50 (HIV-1): 3.3 µM | EC90 (HIV-1): 22.7 µM

C=CCc1cc(C(=C(Cl)Cl)c2ccc(O)c(CC=C)c2)ccc1O
inhibition at 10 µg/mL [1]: 53.6% | inhibition at 15 µg/mL [1]: 75.6%

C=CCc1ccc(OC)c(-c2ccc(OC)c(CC=C)c2)c1 [drawing 45]
EC50 at 3 days (cytotoxicity assay (MTT) [2]; [4]): > 100 µM | EC50 at 4 days (cytotoxicity assay (MTT) [2]; [5]): 19.1 µM | EC50 at 5 days (cytotoxicity assay (MTT) [3]; [6]): > 100 µM | EC50 (HIV-1): 54.3 µM | EC90 (HIV-1): > 100 µM

C=CCc1cc(C(c2ccc(O)c(CC=C)c2)c2ccccn2)ccc1O
inhibition at 10 µg/mL [1]: 25.2% | inhibition at 15 µg/mL [1]: 46.1%

C=CCc1ccc(OC)c(-c2ccc(OC)c(CC=C)c2)c1 [drawing 55]
inhibition at 10 µg/mL [1]: 40.6% | inhibition at 15 µg/mL [1]: 47.2%

C=CCc1ccc2c(c1)-c1cc(CC=C)ccc1OC(C)(C)O2 [drawing 42]
EC50 at 3 days (cytotoxicity assay (MTT) [2]; [4]): > 100 µM | EC50 at 4 days (cytotoxicity assay (MTT) [2]; [5]): 11.6 µM | EC50 at 5 days (cytotoxicity assay (MTT) [3]; [6]): 75.3 µM | EC50 (HIV-1): 13.6 µM | EC90 (HIV-1): 43.3 µM

O=C(/C=C/c1ccccc1)Oc1cc(OC(=O)/C=C/c2ccccc2)cc(OC(=O)/C=C/c2ccccc2)c1
inhibition at 10 µg/mL [1]: 13.4% | inhibition at 15 µg/mL [1]: 8.6%
